# Assays:
# [1] = target: T1, Histamine H1 receptor (Cavia porcellus, UniProt P31389); experiment: (§1) Potency against histamine H1 receptor on guinea pig ileum; format: tissue-based; conditions: read-out: pA2 (converted)
# [2] = target: T1, Histamine H1 receptor; experiment: Inhibition of [3H]mepyramine binding with histamine H1 receptor in guinea pig cerebellum membranes after 30 min; format: cell membranes, Membrane
# [3] = target: T1, Histamine H1 receptor; experiment: Inhibition of [3H]mepyramine binding with histamine H1 receptor in guinea pig cerebellum membranes; format: cell membranes, Membrane
# [4] = target: Histamine H1 receptor (Cavia porcellus) (UniProt P31389); experiment: as §1; format: tissue-based
# [5] = target: T1, Histamine H1 receptor; experiment: as §1
# T1 sequence (P31389 whole entry): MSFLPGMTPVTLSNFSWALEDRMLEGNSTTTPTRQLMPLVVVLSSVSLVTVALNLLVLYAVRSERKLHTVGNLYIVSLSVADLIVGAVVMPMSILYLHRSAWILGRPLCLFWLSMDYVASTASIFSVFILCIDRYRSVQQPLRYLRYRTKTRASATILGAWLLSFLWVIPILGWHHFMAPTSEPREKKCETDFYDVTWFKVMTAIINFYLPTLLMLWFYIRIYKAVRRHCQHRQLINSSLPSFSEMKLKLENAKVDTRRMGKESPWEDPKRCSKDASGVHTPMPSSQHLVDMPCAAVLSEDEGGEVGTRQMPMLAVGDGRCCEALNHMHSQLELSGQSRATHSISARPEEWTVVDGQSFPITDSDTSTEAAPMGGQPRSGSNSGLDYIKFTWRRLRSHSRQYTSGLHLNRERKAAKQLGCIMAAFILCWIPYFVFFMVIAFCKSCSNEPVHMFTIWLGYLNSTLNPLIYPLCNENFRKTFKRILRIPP
# Histamine H1 receptor (Cavia porcellus), sequence (P31389 whole entry): as above
Structure (SMILES),Kb [1] [nM],Ki [2] [nM],also measured
Cc1ccc([C@H](OCCN(C)C)c2ccccc2)cc1,2,12.3,–
Cc1ccc([C@@H](OCCN(C)C)c2ccccc2)cc1,158,–,Ki [3]: 12.3 nM
c1ccc2c(c1)Sc1ccccc1N2C1CN2CCC1CC2 (configuration not stated),–,–,pED50 [4]: 7.3
c1ccc2c(c1)Sc1ccccc1N2CC1CN2CCC1CC2 (configuration not stated),–,–,pED50 [4]: 7.2
NC1=NCC2c3ccccc3Cc3ccccc3N12 (configuration not stated) [EPINASTINE],–,1.41,IC50 [5]: 1.58 nM
CN1CCC2=C(C1)C(c1ccccc1)c1ccccc12 (configuration not stated) [PHENINDAMINE],1.58,6.31,–
Cc1ccc(/C(=C\CN2CCCC2)c2ccccn2)cc1 [TRIPROLIDINE],0.126,1.66,–

# From ChEMBL document CHEMBL1128524, “The histamine H1-receptor antagonist binding site. A stereoselective pharmacophoric model based upon (semi-)rigid H1-antagonists and including a known interaction site on the receptor” (J Med Chem, 1995)
